The test system of one assay is AsPC-1 (G12D). The assay can be described thus: In vitro cell proliferation inhibition test (CellTiter-Glo), AsPC-1. In kind it is cell-based. To be noted: Homo sapiens, ASPC1, AsPC-1 pancreas cell line, KRAS (p.G12D), 72 h co-incubation. A digest of the protocol:
(§1)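 Cells were seeded at 1000-5000/well by doubling time and cultured overnight at 37 °C, 5% CO2. They were then exposed for 72 h to 10-point, 3-fold compound dilutions (final top 10 μM), and viability was read by CellTiter-Glo luminescence. IC50 came from normalized signals fitted by four-parameter regression.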

The test system of a further assay is SW480 (G12V). The assay can be described thus: In vitro cell proliferation inhibition test (CellTiter-Glo), SW480. In kind it is cell-based. To be noted: Homo sapiens, SW480 colon cell line, KRAS (p.G12V), 72 h co-incubation. A digest of the protocol:
as §1
(In general: Cellular ATP, detected with luciferase, serves as a proxy for viable cell number.)

Each structure is given as a SMILES string.

Consider `CCn1c(-c2cc(-c3cc([C@H]4COCCN4C)on3)cnc2[C@H](C)OC)c2c3cc(ccc31)-c1csc(n1)C[C@H](NC(=O)[C@H]1[C@H](C)[C@@H]1C)C(=O)N1CCC[C@H](N1)C(=O)OCC(C)(C)C2` (atropisomer, axis not shown) [Compound 33, (1r,2R,3S)-N-((6^3S,4S,Z)-1^1-ethyl-1^2-(2-((S)-1-methoxyethyl)-5-(5-((R)-4-methylmorpholin-3-yl)isoxazol-3-yl)pyridin-3-yl)-10,10-dimethyl-5,7-dioxo-6^1,6^2,6^3,6^4,6^5,6^6-hexahydro-1^1H-8-oxa-2(4,2)-thiazola-1(5,3)-indola-6(1,3)-pyridazinacycloundecaphane-4-yl)-2,3-dimethylcyclopropane-1-carboxamide], for which the results for the IC50 in the assay with AsPC-1 (G12D) and in the assay with SW480 (G12V) were 0.86 nM and 2.1 nM, respectively.

Regarding `CCn1c(-c2cc(-c3cc(C4(C)CN(C)C4)on3)cnc2[C@H](C)OC)c2c3cc(ccc31)-c1csc(n1)C[C@H](NC(=O)[C@H]1[C@H](C)[C@@H]1C)C(=O)N1CCC[C@H](N1)C(=O)OCC(C)(C)C2` (atropisomer, axis not shown) [Compound 34, (1r,2R,3S)-N-((6^3S,4S,Z)-1^2-(5-(5-(1,3-dimethylazetidin-3-yl)isoxazol-3-yl)-2-((S)-1-methoxyethyl)pyridin-3-yl)-1^1-ethyl-10,10-dimethyl-5,7-dioxo-6^1,6^2,6^3,6^4,6^5,6^6-hexahydro-1^1H-8-oxa-2(4,2)-thiazola-1(5,3)-indola-6(1,3)-pyridazinacycloundecaphane-4-yl)-2,3-dimethylcyclopropane-1-carboxamide], the IC50 is 0.16 nM in the assay with AsPC-1 (G12D) and 0.17 nM in the assay with SW480 (G12V).

Regarding `CCn1c(-c2cc(-c3cnc(CN4CCOCC4)cn3)cnc2[C@H](C)OC)c2c3cc(ccc31)-c1csc(n1)C[C@H](NC(=O)[C@H]1C[C@@H]1C)C(=O)N1CCC[C@H](N1)C(=O)OCC(C)(C)C2` (atropisomer, axis not shown) [Compound 35, (1S,2S)-N-((6^3S,4S,Z)-1^1-ethyl-1^2-(2-((S)-1-methoxyethyl)-5-(5-(morpholinomethyl)pyrazin-2-yl)pyridin-3-yl)-10,10-dimethyl-5,7-dioxo-6^1,6^2,6^3,6^4,6^5,6^6-hexahydro-1^1H-8-oxa-2(4,2)-thiazola-1(5,3)-indola-6(1,3)-pyridazinacycloundecaphane-4-yl)-2-methylcyclopropane-1-carboxamide], the IC50 was determined as 4 nM with AsPC-1 (G12D) and 2 nM in the assay with SW480 (G12V).

In the case of `CCn1c(-c2cc(-c3ccn(CCN4CCOCC4)c(=O)c3)cnc2[C@H](C)OC)c2c3cc(ccc31)-c1csc(n1)C[C@H](NC(=O)[C@H]1[C@H](C)[C@@H]1C)C(=O)N1CCC[C@H](N1)C(=O)OCC(C)(C)C2` (atropisomer, axis not shown) [Compound 36, (1r,2R,3S)-N-((6^3S,4S,Z)-1^1-ethyl-1^2-(6-((S)-1-methoxyethyl)-1′-(2-morpholinoethyl)-2′-oxo-1′,2′-dihydro-[3,4′-bipyridin]-5-yl)-10,10-dimethyl-5,7-dioxo-6^1,6^2,6^3,6^4,6^5,6^6-hexahydro-1^1H-8-oxa-2(4,2)-thiazola-1(5,3)-indola-6(1,3)-pyridazinacycloundecaphane-4-yl)-2,3-dimethylcyclopropane-1-carboxamide], the IC50 in the assay on AsPC-1 (G12D) was determined as 0.39 nM; in the assay with SW480 (G12V), 1 nM.

Regarding `CCn1c(-c2cc(-c3cncc(CN4CCS(=O)(=O)CC4)c3)cnc2[C@H](C)OC)c2c3cc(ccc31)-c1csc(n1)C[C@H](NC(=O)[C@H]1[C@H](C)[C@@H]1C)C(=O)N1CCC[C@H](N1)C(=O)OCC(C)(C)C2` (atropisomer, axis not shown) [Compound 37, (1r,2R,3S)-N-((6^3S,4S,Z)-12-(5′-((1,1-dioxidothiomorpholino)methyl)-6-((S)-1-methoxyethyl)-[3,3′-bipyridin]-5-yl)-1^1-ethyl-10,10-dimethyl-5,7-dioxo-6^1,6^2,6^3,6^4,6^5,6^6-hexahydro-1^1H-8-oxa-2(4,2)-thiazola-1(5,3)-indola-6(1,3)-pyridazinacycloundecaphane-4-yl)-2,3-dimethylcyclopropane-1-carboxamide], the values for the IC50 in the assay on AsPC-1 (G12D) and in the assay with SW480 (G12V) were 0.9 nM and 1.8 nM, respectively.

For `CCn1c(-c2cc(-c3cnc(CN4CCS(=O)(=O)CC4)nc3)cnc2[C@H](C)OC)c2c3cc(ccc31)-c1csc(n1)C[C@H](NC(=O)[C@H]1C[C@@H]1C)C(=O)N1CCC[C@H](N1)C(=O)OCC(C)(C)C2` (atropisomer, axis not shown) [Compound 38, (1S,2S)-N-((6^3S,4S,Z)-1^2-(5-(2-((1,1-dioxidothiomorpholino)methyl)pyrimidin-5-yl)-2-((S)-1-methoxyethyl)pyridin-3-yl)-1^1-ethyl-10,10-dimethyl-5,7-dioxo-6^1,6^2,6^3,6^4,6^5,6^6-hexahydro-1^1H-8-oxa-2(4,2)-thiazola-1(5,3)-indola-6(1,3)-pyridazinacycloundecaphane-4-yl)-2-methylcyclopropane-1-carboxamide], the IC50 with AsPC-1 (G12D) was found to be 66 nM; in the assay on SW480 (G12V) it was 23 nM.

Regarding `CCn1c(-c2cc(-c3cnc(CN4CCOCC4)nc3)cnc2[C@H](C)OC)c2c3cc(ccc31)-c1csc(n1)C[C@H](NC(=O)[C@H]1[C@H](C)[C@@H]1C)C(=O)N1CCC[C@H](N1)C(=O)OCC(C)(C)C2` (atropisomer, axis not shown) [Compound 39, (1r,2R,3S)-N-((6^3S,4S,Z)-1^1-ethyl-1^2-(2-((S)-1-methoxyethyl)-5-(2-(morpholinomethyl)pyrimidin-5-yl)pyridin-3-yl)-10,10-dimethyl-5,7-dioxo-6^1,6^2,6^3,6^4,6^5,6^6-hexahydro-1H-8-oxa-2(4,2)-thiazola-1(5,3)-indola-6(1,3)-pyridazinacycloundecaphane-4-yl)-2,3-dimethylcyclopropane-1-carboxamide], the IC50 in the assay on AsPC-1 (G12D) came to 0.57 nM; with SW480 (G12V), 0.48 nM.

Turning to `CCn1c(-c2cc(-c3ccc(=O)n(CCN4CCOCC4)c3)cnc2[C@H](C)OC)c2c3cc(ccc31)-c1csc(n1)C[C@H](NC(=O)[C@H]1C[C@@H]1C)C(=O)N1CCC[C@H](N1)C(=O)OCC(C)(C)C2` (atropisomer, axis not shown) [Compound 40, (1S,2S)-N-((6^3S,4S,Z)-1^1-ethyl-1^2-(6-((S)-1-methoxyethyl)-1′-(2-morpholinoethyl)-6′-oxo-1′,6′-dihydro-[3,3′-bipyridin]-5-yl)-10,10-dimethyl-5,7-dioxo-6^1,6^2,6^3,6^4,6^5,6^6-hexahydro-1^1H-8-oxa-2(4,2)-thiazola-1(5,3)-indola-6(1,3)-pyridazinacycloundecaphane-4-yl)-2-methylcyclopropane-1-carboxamide], the IC50 amounted to 9.2 nM in the assay on AsPC-1 (G12D) and 10 nM in the assay on SW480 (G12V).

Turning to `CCn1c(-c2cc(-c3ccc(CN4CCN(C)CC4)cn3)cnc2[C@H](C)OC)c2c3cc(ccc31)-c1csc(n1)C[C@H](NC(=O)[C@H]1C[C@@H]1C)C(=O)N1CCC[C@H](N1)C(=O)OCC(C)(C)C2` (atropisomer, axis not shown) [Compound 41, (1S,2S)-N-((6^3S,4S,Z)-1^1-ethyl-1^2-(6′-((S)-1-methoxyethyl)-5-((4-methylpiperazin-1-yl)methyl)-[2,3′-bipyridin]-5′-yl)-10,10-dimethyl-5,7-dioxo-6^1,6^2,6^3,6^4,6^5,6^6-hexahydro-1^1H-8-oxa-2(4,2)-thiazola-1(5,3)-indola-6(1,3)-pyridazinacycloundecaphane-4-yl)-2-methylcyclopropane-1-carboxamide], the IC50 was found to be 2.6 nM in the assay with AsPC-1 (G12D) and 3.7 nM with SW480 (G12V).

The term IC50 denotes the concentration needed to halve the response being measured.

The record behind these values is patent US20260193271A1, “PAN-KRAS INHIBITOR COMPOUND” (ADLAI NORTYE BIOPHARMA CO., LTD., priority 2022, published 2026).
